These are literature values, as cited in patent US9290492B2, “Solid forms of antibiotics” (Laboratorios Senosiain S.A. de C.V., priority 2011, dated 2016).

For `C[C@H]1COc2c(N3CCN(C)CC3)c(F)cc3c(=O)c(C(=O)O)cn1c23` [Levofloxacin], for the setting “in vivo”, the bioavailability (as a rule, the share of a dose that reaches the circulation, judged against a reference dose that is usually intravenous) is listed as 99% and the route of excretion result is reported as “via urine”.
In the case of `COc1c(N2C[C@@H]3CCCN[C@@H]3C2)c(F)cc2c(=O)c(C(=O)O)cn(C3CC3)c12` [moxifloxacin, Moxifloxacin], under “in vivo”, the route of excretion entry was “via the liver”. Moreover, the “excreted as the unchanged drug (total)” value (of an oral or intravenous dose) is on record as “Approximately 45%”. For the same molecule, the “excreted as the unchanged drug in feces” value (of an oral or intravenous dose, feces) is given as around 25%. In addition, the “excreted as the unchanged drug in urine” value (of an oral or intravenous dose, urine) is reported as around 20%.
